Results reported in the NIST ThermoML archive (doi:10.1016/j.fluid.2006.05.015).
± gives the expanded uncertainty stated by the source.

Assay: mn = molality of the nth substance listed, in mol/kg
Settings: Liquid, Constant-volume piezometry

[Br-].[K+] [potassium bromide] + O
Settings	mass density [kg/m3]
298.15 K, 101 kPa, m1 = 0.2378	1017 ± 1.2
298.15 K, 101 kPa, m1 = 0.4645	1035.5 ± 1.2
298.15 K, 101 kPa, m1 = 0.944	1073.1 ± 1.3
298.15 K, 101 kPa, m1 = 2.231	1167.1 ± 1.4
298.94 K, 4079 kPa, m1 = 0.944	1074.6 ± 1.3
298.94 K, 13886 kPa, m1 = 0.944	1079.1 ± 1.3
298.94 K, 28950 kPa, m1 = 0.944	1085.8 ± 1.3
303.15 K, 101 kPa, m1 = 0.2378	1015.5 ± 1.2
303.15 K, 101 kPa, m1 = 0.4645	1033.8 ± 1.2
303.15 K, 101 kPa, m1 = 0.944	1071.4 ± 1.3
303.15 K, 101 kPa, m1 = 2.231	1164.9 ± 1.4
305.49 K, 3020 kPa, m1 = 0.2378	1016 ± 1.2
305.49 K, 10375 kPa, m1 = 0.2378	1019.1 ± 1.2
305.49 K, 27594 kPa, m1 = 0.2378	1026.4 ± 1.3
308.15 K, 101 kPa, m1 = 0.2378	1013.7 ± 1.2
308.15 K, 101 kPa, m1 = 0.4645	1032 ± 1.2
308.15 K, 101 kPa, m1 = 0.944	1069.3 ± 1.3
308.15 K, 101 kPa, m1 = 2.231	1162.4 ± 1.4
308.32 K, 3256 kPa, m1 = 0.4645	1033.3 ± 1.2
308.32 K, 10375 kPa, m1 = 0.4645	1036.5 ± 1.3
308.32 K, 29078 kPa, m1 = 0.4645	1044.3 ± 1.3
310.59 K, 2118 kPa, m1 = 2.231	1162.1 ± 1.4
310.59 K, 14710 kPa, m1 = 2.231	1167.8 ± 1.4
310.59 K, 19825 kPa, m1 = 2.231	1170.1 ± 1.4
310.59 K, 29828 kPa, m1 = 2.231	1174.5 ± 1.5
313.15 K, 101 kPa, m1 = 0.2378	1011.8 ± 1.2
313.15 K, 101 kPa, m1 = 0.4645	1030.1 ± 1.2
313.15 K, 101 kPa, m1 = 0.944	1067.2 ± 1.3
313.15 K, 101 kPa, m1 = 2.231	1159.9 ± 1.4
318.15 K, 101 kPa, m1 = 0.2378	1009.8 ± 1.2
318.15 K, 101 kPa, m1 = 0.4645	1027.9 ± 1.2
318.15 K, 101 kPa, m1 = 0.944	1065 ± 1.3
318.15 K, 101 kPa, m1 = 2.231	1157.4 ± 1.4
323.15 K, 101 kPa, m1 = 0.2378	1007.5 ± 1.2
323.15 K, 101 kPa, m1 = 0.4645	1025.6 ± 1.2
323.15 K, 101 kPa, m1 = 0.944	1062.5 ± 1.3
323.15 K, 101 kPa, m1 = 2.231	1154.8 ± 1.4
328.15 K, 101 kPa, m1 = 0.2378	1005.1 ± 1.2
328.15 K, 101 kPa, m1 = 0.4645	1023.2 ± 1.2
328.15 K, 101 kPa, m1 = 0.944	1060 ± 1.3
328.15 K, 101 kPa, m1 = 2.231	1152.1 ± 1.4
333.15 K, 101 kPa, m1 = 0.2378	1002.6 ± 1.2
333.15 K, 101 kPa, m1 = 0.4645	1020.5 ± 1.2
333.15 K, 101 kPa, m1 = 0.944	1057.4 ± 1.3
333.15 K, 101 kPa, m1 = 2.231	1149.3 ± 1.4
338.15 K, 101 kPa, m1 = 0.2378	999.9 ± 1.2
338.15 K, 101 kPa, m1 = 0.4645	1017.8 ± 1.2
338.15 K, 101 kPa, m1 = 0.944	1054.6 ± 1.3
338.15 K, 101 kPa, m1 = 2.231	1146.4 ± 1.4
343.15 K, 101 kPa, m1 = 0.2378	997.1 ± 1.2
343.15 K, 101 kPa, m1 = 0.4645	1014.9 ± 1.2
343.15 K, 101 kPa, m1 = 0.944	1051.7 ± 1.3
343.33 K, 3923 kPa, m1 = 0.4645	1016.4 ± 1.2
343.33 K, 9552 kPa, m1 = 0.4645	1018.7 ± 1.2
343.33 K, 16550 kPa, m1 = 0.4645	1021.6 ± 1.3
343.33 K, 28570 kPa, m1 = 0.4645	1026.7 ± 1.3
348.15 K, 101 kPa, m1 = 0.2378	994.2 ± 1.2
348.15 K, 101 kPa, m1 = 0.4645	1012 ± 1.2
348.15 K, 101 kPa, m1 = 0.944	1048.7 ± 1.3
349.79 K, 3334 kPa, m1 = 0.2378	994.6 ± 1.2
349.79 K, 11278 kPa, m1 = 0.2378	997.9 ± 1.2
349.79 K, 23461 kPa, m1 = 0.2378	1003.1 ± 1.2
349.79 K, 29380 kPa, m1 = 0.2378	1005.5 ± 1.3
358.08 K, 3668 kPa, m1 = 0.944	1043.1 ± 1.3
358.08 K, 10120 kPa, m1 = 0.944	1046.1 ± 1.3
358.08 K, 29145 kPa, m1 = 0.944	1054.5 ± 1.3
359.48 K, 3824 kPa, m1 = 2.231	1132.6 ± 1.4
359.48 K, 10866 kPa, m1 = 2.231	1135.7 ± 1.4
359.48 K, 18995 kPa, m1 = 2.231	1139.3 ± 1.4
359.48 K, 25870 kPa, m1 = 2.231	1142.3 ± 1.4
380.97 K, 3746 kPa, m1 = 0.4645	990.6 ± 1.2
380.97 K, 9316 kPa, m1 = 0.4645	993.2 ± 1.2
380.97 K, 21042 kPa, m1 = 0.4645	998.6 ± 1.2
380.97 K, 29750 kPa, m1 = 0.4645	1002.5 ± 1.3
393.11 K, 3256 kPa, m1 = 0.2378	963.5 ± 1.2
393.11 K, 10866 kPa, m1 = 0.2378	967.2 ± 1.2
393.11 K, 21065 kPa, m1 = 0.2378	972 ± 1.2
393.11 K, 26860 kPa, m1 = 0.2378	974.7 ± 1.2
400.81 K, 3099 kPa, m1 = 0.944	1010.2 ± 1.2
400.81 K, 9061 kPa, m1 = 0.944	1013 ± 1.2
400.81 K, 18381 kPa, m1 = 0.944	1017.7 ± 1.3
400.81 K, 25438 kPa, m1 = 0.944	1020.8 ± 1.3
432.97 K, 4236 kPa, m1 = 2.231	1073.5 ± 1.3
432.97 K, 11356 kPa, m1 = 2.231	1077.7 ± 1.3
432.97 K, 16570 kPa, m1 = 2.231	1080.7 ± 1.4
432.97 K, 22357 kPa, m1 = 2.231	1084 ± 1.4
434.09 K, 4805 kPa, m1 = 0.2378	928.1 ± 1.1
434.09 K, 9218 kPa, m1 = 0.2378	930.6 ± 1.2
434.09 K, 16941 kPa, m1 = 0.2378	935 ± 1.2
434.09 K, 28064 kPa, m1 = 0.2378	941.1 ± 1.2
453.99 K, 3825 kPa, m1 = 0.4645	925.6 ± 1.1
453.99 K, 9140 kPa, m1 = 0.4645	928.9 ± 1.2
453.99 K, 16241 kPa, m1 = 0.4645	933.5 ± 1.2
453.99 K, 22957 kPa, m1 = 0.4645	937.5 ± 1.2
456.48 K, 4158 kPa, m1 = 0.944	959.4 ± 1.2
456.48 K, 10120 kPa, m1 = 0.944	963.3 ± 1.2
456.48 K, 17148 kPa, m1 = 0.944	967.9 ± 1.2
456.48 K, 24027 kPa, m1 = 0.944	972.2 ± 1.2
475.7 K, 4903 kPa, m1 = 0.2378	884.5 ± 1.1
475.7 K, 10611 kPa, m1 = 0.2378	888.7 ± 1.1
475.7 K, 22060 kPa, m1 = 0.2378	896.6 ± 1.1
475.7 K, 29860 kPa, m1 = 0.2378	902 ± 1.2
482.36 K, 4413 kPa, m1 = 0.4645	893.9 ± 1.1
482.36 K, 8571 kPa, m1 = 0.4645	897 ± 1.1
482.36 K, 15175 kPa, m1 = 0.4645	902 ± 1.1
482.36 K, 20588 kPa, m1 = 0.4645	905.8 ± 1.2
483.32 K, 5217 kPa, m1 = 2.231	1024.2 ± 1.3
483.32 K, 12082 kPa, m1 = 2.231	1029.2 ± 1.3
483.32 K, 22088 kPa, m1 = 2.231	1036.8 ± 1.3
483.32 K, 26194 kPa, m1 = 2.231	1039.4 ± 1.3
493.15 K, 4413 kPa, m1 = 0.944	918.4 ± 1.1
493.15 K, 11591 kPa, m1 = 0.944	923.9 ± 1.2
493.15 K, 21454 kPa, m1 = 0.944	931.3 ± 1.2
493.15 K, 25284 kPa, m1 = 0.944	934.3 ± 1.2
505.79 K, 5786 kPa, m1 = 2.231	999.3 ± 1.2
505.79 K, 11846 kPa, m1 = 2.231	1004 ± 1.3
505.79 K, 16954 kPa, m1 = 2.231	1007.9 ± 1.3
505.79 K, 23854 kPa, m1 = 2.231	1013.5 ± 1.3
511.39 K, 6119 kPa, m1 = 0.4645	858.4 ± 1.1
511.39 K, 10297 kPa, m1 = 0.4645	862.3 ± 1.1
511.39 K, 16047 kPa, m1 = 0.4645	867.8 ± 1.1
511.39 K, 24184 kPa, m1 = 0.4645	875.1 ± 1.1
520.89 K, 7355 kPa, m1 = 0.944	884.8 ± 1.1
520.89 K, 12082 kPa, m1 = 0.944	889.3 ± 1.1
520.89 K, 20122 kPa, m1 = 0.944	896.9 ± 1.2
534.22 K, 8081 kPa, m1 = 0.2378	809.6 ± 1
534.22 K, 11356 kPa, m1 = 0.2378	813.5 ± 1
534.22 K, 23496 kPa, m1 = 0.2378	827 ± 1.1
540.44 K, 8571 kPa, m1 = 0.4645	819.8 ± 1
540.44 K, 11591 kPa, m1 = 0.4645	823.1 ± 1
540.44 K, 22189 kPa, m1 = 0.4645	836.2 ± 1.1
551.72 K, 9140 kPa, m1 = 0.944	842.2 ± 1.1
551.72 K, 14533 kPa, m1 = 0.944	848.7 ± 1.1
551.72 K, 21645 kPa, m1 = 0.944	857.5 ± 1.1
555.7 K, 9708 kPa, m1 = 2.231	941.3 ± 1.2
555.7 K, 13965 kPa, m1 = 2.231	946 ± 1.2
555.7 K, 19995 kPa, m1 = 2.231	952.8 ± 1.2
555.7 K, 23967 kPa, m1 = 2.231	957 ± 1.3
579.16 K, 11670 kPa, m1 = 0.944	797.3 ± 1
579.16 K, 14220 kPa, m1 = 0.944	803 ± 1
579.16 K, 20665 kPa, m1 = 0.944	816.1 ± 1.1
579.16 K, 23665 kPa, m1 = 0.944	822.3 ± 1.1
580.61 K, 11023 kPa, m1 = 0.4645	754.1 ± 1
580.61 K, 12494 kPa, m1 = 0.4645	757.8 ± 1
580.61 K, 19782 kPa, m1 = 0.4645	773.2 ± 1
592.65 K, 11234 kPa, m1 = 0.2378	698.5 ± 0.9
592.65 K, 13731 kPa, m1 = 0.2378	706.6 ± 0.9
592.65 K, 20610 kPa, m1 = 0.2378	725.2 ± 1
608.09 K, 16573 kPa, m1 = 0.4645	703.4 ± 0.9
608.09 K, 17652 kPa, m1 = 0.4645	707.1 ± 0.9
608.09 K, 23146 kPa, m1 = 0.4645	725.8 ± 1
616.41 K, 14847 kPa, m1 = 0.944	714.7 ± 0.9
616.41 K, 15769 kPa, m1 = 0.944	727.1 ± 1
616.41 K, 19875 kPa, m1 = 0.944	753.5 ± 1
628.63 K, 17475 kPa, m1 = 2.231	841.1 ± 1.1
628.63 K, 18221 kPa, m1 = 2.231	844.9 ± 1.1
